# Source: US9556169B2, “Compounds and compositions for the treatment of parasitic diseases” (NOVARTIS AG, priority 2012, dated 2017)
# Tests used:
# [1] = system: Plasmodium yoelii (17XNL) sporozoites; experiment: Liver stage P. yoelii sporozoite invasion assay in HepG2-A16-CD81EGFP cells; format: cell-based; details: values without * in Table 2, HepG2-A16-CD81EGFP liver cells, 48 hours, immunofluorescence, read-out: EC50 (nM), P. yoelii Sporozoite Invasion Assay
# Text: Assay for Proliferation of Parasite in Infected Liver Cells
# Compounds of the invention can be assayed to measure their capacity to inhibit proliferation of parasites in liver cells. The proliferation is quantified by determine the number of infected cells by immunofluorescence.
# Due to the difficulty of successfully infecting immortalized human liver cell lines with the human malaria sporozoites (liver-stage parasite), rodent malaria sporozoites from Plasmodium yoelii (17XNL) and P. berghei (ANKA) are the preferred surrogate. Sporozoites are obtained from Anopheles stephensi mosquitoes supplied by the New York University Insectary, which ships the malaria-infected mosquitoes 10-13 days following the ingestion of an infective blood meal.
# A transgenic HepG2 cell line expressing the tetraspanin CD81 receptor (HepG2-A16-CD81^EGFP) is used to increase the infectivity rate of rodent-malaria sporozoites into human cells. HepG2-A16-CD81^EGFP cells are stably transformed to express a GFP-CD81 fusion protein. A continuous in vitro culture of this line was maintained at 37° C. in 4% CO2 in complete media (CM) which contains: DMEM (Invitrogen, Carlsbad, USA) supplemented with 10% FCS, 0.29 mg/ml glutamine, 100 units penicillin and 100 μg/ml streptomycin (SigmaAldrich, USA).
# Liver Stage P. yoelii Sporozoite Invasion Assay
# Twenty to twenty-six hours prior to sporozoite infection, 7.5×10^3 HepG2-A16-CD81^EGFP cells are seeded into 384-well plates (Aurora 384 IQ-EB black plates with clear bottoms; 50 μl of 1.5×10^5 cells/ml in CM). These plates are incubated at 37° C. with 4% CO2 overnight. Two hours prior to infection, 50 nl of compound dissolved in DMSO (0.1% final DMSO concentration per well) were transferred with a PinTool (GNF Systems) into the assay plates (10 μM final concentration). A 1:3 serial dilution of atovaquone (10 μM at the highest final concentration) and wells treated only with DMSO were used as positive and negative controls, respectively.
# Freshly dissected salivary glands from infected mosquitoes were homogenized in a glass tissue grinder, filtered twice through Nylon cell strainers (40 μm pore size, BD Falcon) and counted using a hemocytometer. The assay plate with HepG2-A16-CD81^EGFP cells and compound were then infected with 8×10^3 sporozoitesper well and the plates are subjected to a centrifugal force of 650×g to pellet the sporozoites onto the liver cell monolayer. The assay plate is incubated at 37° C. for 2 hours to permit sporozoite invasion, then the media is aspirated from the media plate, and replaced with 50 μl CM (containing a 5× concentration of penicillin/streptomycin; 500 units penicillin and 0.5 mg streptomycin per ml) per well. 50 nl of compound is re-introduced by PinTool and the assay plate incubated for 48 hours at 37° C. before quantification of infected cells by immunofluorescence.
# Atovaquone and uninfected wells were used as controls on each plate. Two replicate plates are tested for each assay.
# After fixing the cells by addition of 12.5 μl of 20% solution of paraformaldehyde (EMS, Hatfield, USA) to each assay well (4% final formaldehyde concentration), membranes were permeabilized with 0.5% Triton-X-100 (Thermo Fisher Scientific) and EEFs were stained using a mouse polyclonal serum raised against the Plasmodium yoelii heat shock protein 70 (PyHSP70), a DyLight 649 goat anti-mouse IgG, Fc(gamma) fragment specific secondary antibody (Jackson Immuno Research, Cat#115-495-071) and the Hoechst 33342 nucleic acid dye (Invitrogen, Carlsbad, USA). Stained EEFs were then quantified using the Opera Confocal High Content Screening System (Perkin Elmer, Waltham, USA). Images were collected using a 20× objective lens (20×/0.45 NA, LWD Plan Fluor, Olympus) at a binning of 2, using a 365 nm Xeon arc lamp illumination to detect the Hoechst-labeled nuclei and 635 nm laser line to excite DyLight649-labeled parasites. The image resolution yielded was approximately 0.66 μm/pixel (˜0.43 μm 2/pixel). […]
# [2] = system: P. falciparum (NF54 or 3D7 strain); experiment: P. falciparum proliferation assay in infected human blood cells (SYBR Green); format: cell-based; details: Plasmodium falciparum, Erythrocyte; infected human erythrocytes, 72 hours, SYBR Green fluorescence; read-out: EC50 (nM), inhibitory efficacy in delaying P. falciparum proliferation in infected human blood cells
# How it was run: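 Asexual NF54 or 3D7 parasites in O+ human erythrocytes (final 2.5% hematocrit, 0.3% parasitemia) exposed to compound for 72 h at 37 °C under 93% N2/4% CO2/3% O2. Lysis with SYBR Green I overnight at rt; fluorescence (ex 425/em 530 nm) tracks parasite DNA, giving EC50.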
SMILES,EC50 [1] [nM],EC50 [2] [nM]
"CNC(=O)c1ccc(-c2cnn3ccc(C(=O)N(c4ccc(Cl)cc4)C4CC4)cc23)cc1 [Example 116, N-(4-Chlorophenyl)-N-cyclopropyl-3-(4-(methylcarbamoyl)phenyl)pyrazolo[1,5-a]pyridine-5-carboxamide]",3,1
"CNC(=O)c1ccc(-c2cnn3ccc(C(=O)N(CC4CC4)c4ccc(C#N)cn4)cc23)cc1 [Example 117, N-(5-Cyanopyridin-2-yl)-N-(cyclopropylmethyl)-3-(4-(methylcarbamoyl)phenyl)pyrazolo[1,5-a]pyridine-5-carboxamide]",7,4
"CNC(=O)c1ccc(-c2cnn3ccc(C(=O)N(c4ccc(C#N)cc4)C4CC4)cc23)cc1 [Example 118, N-(4-Cyanophenyl)-N-cyclopropyl-3-(4-(methylcarbamoyl)phenyl)pyrazolo[1,5-a]pyridine-5-carboxamide]",1,3
"CNC(=O)c1ccc(-c2cnn3ccc(C(=O)N(c4ccc(C#N)cn4)C(C)(C)C)cc23)cc1 [Example 119, N-(tert-Butyl)-N-(5-cyanopyridin-2-yl)-3-(4-(methylcarbamoyl)phenyl)pyrazolo[1,5-a]pyridine-5-carboxamide]",56,95
"CCN(C(=O)c1ccn2ncc(-c3ccc(S(=O)(=O)NC)cc3)c2c1)c1ccc(C#N)cn1 [Example 140, N-(5-cyanopyridin-2-yl)-N-ethyl-3-(4-[N-methylsulfamoyl]phenyl)pyrazolo[1,5-a]pyridine-5-carboxamide]",84,199
